In general, EC50 refers to the concentration at which the effect is half-maximal. In general, IC50 refers to the concentration needed to halve the response being measured. Low values mean inhibition by little substance, high ones a need for much substance.

Several values for one entry are separate records, joined by “and”; a condition that tells them apart may be missing. Equal values may be shown once. Activity calls are given as the source filed them.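 Rule for the calls: active = compounds giving half or more protection of infected cells from virus-caused growth loss, again on retest; inactive = the rest.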

In the assay the test system is CEM cells HIV-1 protection, formazan growth assay. The assay can be described thus: NCI AIDS Antiviral Assay. The settings on record: for IC50: measured here: growth of uninfected CEM cells. The essentials: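 CEM (human) cells, HIV-1 infected vs uninfected, 5-point dosing, formazan growth read-out. Retest threshold 50% protection.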

In the case of `CC1(C)Oc2ccc3c(=O)c(-c4ccccc4)c(-c4ccccc4)oc3c2C1C(=O)O` (stereo not given), the EC50 was > 200 µM and the IC50 turned out to be 72.4 µM.

As to `Cc1nnc(N=Nc2c(O)[nH]c3ccccc23)n1N`, the EC50 was > 70.8 µM and the IC50 turned out to be 58.9 µM.

`[N-]=N[N+]#I1OC(C(F)(F)F)(C(F)(F)F)c2ccccc21`: the result was inactive.

As for `Cc1cccc(Nc2ccccc2C(=O)O)c1C`, the EC50 is > 200 µM and the IC50 amounted to 129 µM.

In the case of `O=C(/C=C/c1ccc(OCc2ccccc2)c(OCc2ccccc2)c1)OCc1ccccc1`, the EC50 was > 200 µM and the IC50 is > 200 µM.

In the case of `CC(C)(C)OC(=O)N1N=NC2C1C1CC(OCc3ccccc3)(OCc3ccccc3)C2O1` (stereo not given), the EC50 was > 15.8 µM and the IC50 was > 15.8 µM.

As to `COC(=O)C1=C(c2ccccc2)ON2C(C)(C)COC12C` (stereo not given), the EC50 was > 200 µM and the 50% inhibitory concentration (IC50) is > 200 µM.

As to `CN(C)c1nc(N)c(N=O)c(=O)[nH]1`, the EC50 was > 200 µM and the IC50 was 178 µM.

Take `CC(C)(C)C1CCC2(CC1)CCN(CCCN1CCOCC1)CC2`: the EC50 was > 55 µM and the IC50 was 12.3 µM.

Regarding `CCOC(=O)c1c(-c2ccccc2)oc(-c2ccccc2)c1C(=O)OCC`, the result was inactive.

In the case of `O=C(NCCCCCN1CCC2(CCCCC2)CC1)C(C1CCCCC1)C1CCCCC1`, the EC50 is > 100 µM and the IC50 amounted to 9.33 µM.

For the molecule `Cc1ccc(C(=O)NC(C)(C)C)cc1N=NN(C)C`, the EC50 was > 138 µM and the IC50 was > 138 µM.

For `O=C1OC(=O)N2CSCC12` (stereo not given), the EC50 is > 1580 µM and the IC50 was > 1580 µM.

Turning to `CC(=O)OC1CCCn2c1nc1c2C(=O)C(C)=C(N2CC2)C1=O` (stereo not given), the outcome was inactive.

Consider `C=C(C)COC(=O)C1C2CC(C3OC23)C1C(=O)OCC(=C)C` (stereo not given), for which the EC50 is > 200 µM and the IC50 is 112 µM.

In the case of `O=C1C=CC2CCC1C2` (stereo not given), the outcome was inactive.

Turning to `O/N=C(\CC(O)(C(F)(F)F)C(F)(F)F)c1cccc(Cl)c1`, the EC50 is > 200 µM and the IC50 amounted to 10.7 µM.

With `N#Cc1c(N)oc(-c2ccccc2)c1-c1ccccc1`, the result was inactive.

Consider `O=c1c2ccccc2nc(N/N=C/c2ccccc2O)n1-c1ccccc1`, for which the EC50 was > 200 µM and the IC50 turned out to be 1.48 µM.

Take `COC1=CC(=O)C(Br)=CC1=O`: the result was inactive.

As for `CC(=O)c1cc(N=Nc2ccc(/C=C/c3ccc(N=Nc4cc(O)c5ncccc5c4C(C)=O)cc3S(=O)(=O)O)c(S(=O)(=O)O)c2)c(O)c2ncccc12`, the EC50 is > 29.5 µM and the IC50 stood at 28.8 µM.

Consider `O=C1OC(=O)C2=C1C1c3ccccc3C2c2ccccc21`, for which the EC50 was > 95.5 µM and the half-maximal inhibitory concentration (IC50) was 22.4 µM.

For `N#C/C(c1nc2ccccc2[nH]1)=c1\s/c(=C(/N)O)c(=N)n1-c1ccccc1`, the EC50 is > 13.8 µM and the half-inhibitory concentration (IC50) is > 13.8 µM.

With `N#CC(C#N)=Cc1ccccc1[N+](=O)[O-]`, the EC50 is > 302 µM and the IC50 worked out at 15.1 µM.

For the molecule `O=C(O)CSSCC(=O)O`, the EC50 was > 200 µM and the 50% inhibitory concentration (IC50) is > 200 µM.

As to `CNCc1c(S)ccc2ccccc12`, the outcome was inactive.

`O=c1c2cccnc2ncn1CCCN1CCOCC1`: the outcome was inactive.

As to `C/C(CCn1[nH]c(=O)ccc1=O)=N\N=C(N)N`, the EC50 was > 4.37 µM and the IC50 is > 4.37 µM.

As to `O=C1/C(=C\c2ccccc2)CN(C(=O)CCN2CCCCC2)C/C1=C/c1ccccc1`, the EC50 is > 151 µM and the IC50 is 0.794 µM.

For the molecule `CCOc1ccc(NCc2cc(OC)c(OC)c(OC)c2)cc1`, the EC50 is > 158 µM; the IC50 is 0.324 µM and 0.339 µM.

For the molecule `COc1cc(CNc2cnc3cc(N)ccc3n2)cc(OC)c1OC`, the EC50 was > 200 µM and the IC50 was found to be 6.46 µM.

In the case of `O=C1CC(c2ccsc2)NC(=O)N1CCCl` (stereo not given), the EC50 is > 200 µM and the IC50 was > 200 µM.

Consider `O=S1Cc2ccccc2CS1` (stereo not given), for which the outcome was inactive.

On to `O=C(CCc1ccc(O)c(O)c1)OCCc1ccccc1`, for which the EC50 is > 200 µM and the concentration for half-maximal inhibition (IC50) stood at 6.61 µM.

Consider `C=C(C)C1CC[C@@](C)(O)[C@H](C#N)C1` (stereo not given in full), for which the EC50 is > 200 µM and the IC50 was > 200 µM.

For `COc1cccc2c(Nc3ccc(S(=O)(=O)N=C(N)N)cc3)c3ccc([N+](=O)[O-])cc3nc12`, the EC50 was > 200 µM and the IC50 stood at 11 µM.

Regarding `COc1ccc(NC(=O)C(=O)Cc2nc3ccc([N+](=O)[O-])cc3[nH]c2=O)c(OC)c1`, the EC50 is > 17.4 µM and the IC50 was > 17.4 µM.

As to `N=Nc1c2ccccc2c2nc3c(N)[nH]nc(N)c3nc12`, the EC50 was > 45.7 µM and the IC50 was found to be 28.8 µM.

Take `O=C1[C@@H]2C(c3cccc([N+](=O)[O-])c3)=NO[C@@H]2C(=O)N1c1ccc(Cc2ccc(N3C(=O)[C@H]4C(c5cccc([N+](=O)[O-])c5)=NO[C@H]4C3=O)cc2)cc1`: the EC50 is > 38 µM and the IC50 is > 38 µM.

For the molecule `N#CC12CCC(O)C(CC1)C2=O` (stereo not given), the result was inactive.

Consider `N#CC1(C#N)[C@@H]2CCC=C(Sc3ccccc3)[C@@H]21`, for which the EC50 was > 200 µM and the IC50 came out at 9.12 µM.

Turning to `Cc1ccc(C)c(N=Nc2c(S(=O)(=O)O)cc3cc(NC(=O)Nc4ccc5c(O)c(N=Nc6ccc7cc(S(=O)(=O)O)ccc7c6)c(S(=O)(=O)O)cc5c4)ccc3c2O)c1`, the EC50 was 16.2 µM and the IC50 was > 100 µM.

In the case of `O=[P+](O)c1cccnc1`, the outcome was inactive.

On to `CN(c1cn(C2CC[C@@H](CO)O2)c(=O)[nH]c1=O)C1CCCCC1` (stereo not given in full), for which the EC50 was > 200 µM and the half-maximal inhibitory concentration (IC50) is > 200 µM.

Turning to `O=c1[nH]cnc2c1sc1nc3ccccc3n12`, the EC50 is > 200 µM and the IC50 came out at 141 µM.

As to `COc1ccc(/C(=N/Nc2nc3ccccc3[nH]2)C(=O)O)cc1`, the EC50 is > 200 µM and the IC50 was > 200 µM.

On to `O=C(Nc1ccccc1)N1CCNC1=S`, for which the EC50 was 162 µM and the IC50 is > 200 µM.

Turning to `Oc1ccc(Cc2cc(Cc3ccc(O)cc3)cc(Cc3ccc(O)cc3)c2)cc1`, the EC50 came to 93.3 µM and the 50% inhibitory concentration (IC50) is > 100 µM.

As to `Cc1ccc(S(=O)(=O)SC(S(=O)(=O)c2ccc(C)cc2)S(=O)(=O)c2ccc(C)cc2)cc1`, the EC50 was > 355 µM and the IC50 worked out at 148 µM.

Turning to `C/C(=N\NC(=O)c1ccncc1)c1ccccc1F`, the EC50 is > 977 µM and the IC50 came out at 617 µM.

Regarding `O=c1[nH]c2ccccc2c(O)c1/C=N/C(=S)NCc1ccccc1`, the EC50 is > 200 µM and the IC50 was > 200 µM.

As for `Cc1cc2c(c3ncccc13)OCN(Cc1ccc(Cl)c(Cl)c1)C2`, the EC50 is > 100 µM and the IC50 was found to be 1.05 µM.

Take `CC1(C)C2CCC1(CS(=O)(=O)Nc1ccccc1)C(=O)C2` (stereo not given): the EC50 was > 200 µM and the IC50 is > 200 µM.

For `CNc1ccc(S(=O)Nc2ccc(OC)cc2)cc1` (stereo not given), the EC50 was > 200 µM and the IC50 was found to be 17.8 µM.

`COC(=O)C1(Cc2ccccc2)Cc2cc3c(cc2C1)CCC3`: the EC50 is > 200 µM and the IC50 was determined as 60.3 µM.

For `Cc1ccc(NC(=O)CC(=O)n2nc(-c3ccccc3)c(N=Nc3ccc(Cl)cc3)c2-c2ccccc2)cc1`, the EC50 is > 9.77 µM and the IC50 was > 9.77 µM.

With `C#CCOCC12C=CC(O1)C1C(=O)OCC12` (stereo not given), the EC50 is > 200 µM and the IC50 is > 200 µM.

As to `Cn1c(=O)c2c(no[n+]2[O-])n(C)c1=O`, the EC50 is > 200 µM and the IC50 is 13.2 µM.

Consider `CC(=O)SCCC1c2[nH]c3ccccc3c2CCN1O` (stereo not given), for which the outcome was inactive.

With `O=NN1CN2CN(C1)CN(N=O)C2`, the EC50 was > 200 µM and the IC50 is 30.9 µM.

On to `CC(=O)[O-].O=C([N-]/N=C\c1ccoc1)c1ccncc1.[Ni+2].[OH3+].[OH3+].c1ccncc1`, for which the EC50 is > 200 µM and the 50% inhibitory concentration (IC50) was > 200 µM.

For the molecule `O=[N+]([O-])c1cccc2c(N3CC3)cnnc12`, the result was inactive.

On to `NC(N)=N/N=C\c1ccc(C2CCNCC2)cc1`, for which the EC50 was > 200 µM and the IC50 is > 200 µM.

As for `NC(Cc1ccc(N(CCCl)CCCl)cc1)C(=O)O` (stereo not given), the EC50 was > 200 µM and the IC50 worked out at 12 µM.

In the case of `COC1=C(C(=O)OC(C)(C)C)C2C(C(=O)OC(C)(C)C)C(OC)=C(C(=O)OC(C)(C)C)C2C1C(=O)OC(C)(C)C` (stereo not given), the EC50 is > 31.6 µM and the IC50 was 17 µM.

For `CCN(CC)CCO/N=C1\CC[C@H]2[C@@H]3CC=C4C[C@@H](O)CC[C@]4(C)[C@H]3CC[C@]12C`, the EC50 is > 200 µM and the IC50 was determined as 15.5 µM.

Take `Cc1nc2ccccc2c(C)[n+]1[O-]`: the EC50 was > 200 µM and the IC50 was > 200 µM.

`O=C(O)c1cc(/C=C/c2ccc(N=Nc3c(O)cc(O)cc3C(=O)O)c(C(=O)O)c2)ccc1N=Nc1c(O)cc(O)cc1C(=O)O`: the EC50 was 16.6 µM and 3.89 µM; the half-inhibitory concentration (IC50) was > 100 µM and 95.5 µM.

Consider `Oc1cc(Cc2ccccc2)c(Cc2ccccc2)cc1O`, for which the EC50 is > 200 µM and the IC50 was 34.7 µM.

The values above are taken from PubChem BioAssay AID179 (DTP/NCI, 2004).
